Source: article PMC2637613 (Basic & clinical pharmacology & toxicology, 2008)
pIC50: −log10 of the molar value. Where a name gives a salt, the structure may show the parent alone.

Columns and labels:
[1] = target: T1, BCRP (Homo sapiens, UniProt Q9UNQ0); test: cell-based
T1 sequence (Q9UNQ0 1-655): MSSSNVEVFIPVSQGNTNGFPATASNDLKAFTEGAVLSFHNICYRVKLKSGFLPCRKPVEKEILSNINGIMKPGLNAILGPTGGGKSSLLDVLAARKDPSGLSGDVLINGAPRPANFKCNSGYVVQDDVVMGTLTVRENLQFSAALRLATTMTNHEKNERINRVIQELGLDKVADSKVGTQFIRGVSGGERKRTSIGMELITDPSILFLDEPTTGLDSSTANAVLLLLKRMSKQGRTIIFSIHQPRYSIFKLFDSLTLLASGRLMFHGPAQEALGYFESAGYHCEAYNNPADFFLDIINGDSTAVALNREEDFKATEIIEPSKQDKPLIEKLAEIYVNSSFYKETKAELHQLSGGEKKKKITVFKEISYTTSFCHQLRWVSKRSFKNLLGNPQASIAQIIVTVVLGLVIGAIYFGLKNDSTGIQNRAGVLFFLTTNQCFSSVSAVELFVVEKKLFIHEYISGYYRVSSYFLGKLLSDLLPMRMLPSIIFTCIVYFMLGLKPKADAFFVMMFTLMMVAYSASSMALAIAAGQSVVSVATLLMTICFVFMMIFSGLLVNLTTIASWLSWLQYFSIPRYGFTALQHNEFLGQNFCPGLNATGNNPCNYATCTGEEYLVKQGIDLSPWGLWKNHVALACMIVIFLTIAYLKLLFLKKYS

[2] = read-out: Cmax (mean maximal plasma concentration), patients, ref Aravagiri et al. 1998, Hiemke et al. 2004, Suzuki et al. 2001, Yeung et al. 1993; cited from earlier work
[3] = target: T1, BCRP; conditions: estimated liver concentration divided by BCRP IC50 in MCF7/MX100 cells
[4] = calculated from mean tissue to plasma AUC ratios; ref [16]; Aravagiri et al. 2002; Aravagiri et al. 1999; Manjunath and Venkateswarlu 2005; Hopenwasser et al. 2004; Sgaragli et al. 1995; Miyazaki et al. 1986; cited from earlier work

Row | SMILES | pIC50 [1] | Cmax * liver:plasma partition ratio/IC50 [3] | Cmax [2] [nM] | Liver:plasma partition ratio [4]
1 | O=C(CCCN1CCC(O)(c2ccc(Cl)cc2)CC1)c1ccc(F)cc1 [Haloperidol] | < 4.00 | – | 50 | –
2 | CN1CCN(C2=Nc3cc(Cl)ccc3Nc3ccccc32)CC1 [Clozapine, clozapine] | 4.38 | – | 2500 | –
3 | Cc1nc2n(c(=O)c1CCN1CCC(c3noc4cc(F)ccc34)CC1)CCCC2 [Risperidone] | – | – | 400 | –
4 | Cc1cc2c(s1)Nc1ccccc1N=C2N1CCN(C)CC1 [Olanzapine] | – | – | 300 | –

The remaining molecules from weak to strong by pIC50 [1], led by results:

Row | pIC50 [1] | Cmax * liver:plasma partition ratio/IC50 [3] | SMILES | Cmax [2] [nM] | Liver:plasma partition ratio [4]
5 | 4.18 | 0.04–0.10 | OCCOCCN1CCN(C2=Nc3ccccc3Sc3ccccc32)CC1 [Quetiapine, quetiapine] | 800 | 3.5–8.7 ^8
6 | 4.28 | 0.6 | CN(C)CCCN1c2ccccc2Sc2ccc(Cl)cc21 [Chlorpromazine, chlorpromazine hydrochloride] | 300 | 97.7 ^9
7 | 4.29 | 0.5 | Cc1nc2n(c(=O)c1CCN1CCC(c3noc4cc(F)ccc34)CC1)CCCC2O (stereo not drawn) [Paliperidone, 9-hydroxy-risperidone] | 400 | 67.5 ^5
